Experimental data: BindingDB's records for patent US20240368150 (Hoffmann-La Roche, 2024)
pIC50: −log10 of the molar value.

Tests used:
[1] = molecular target: Diacylglycerol kinase zeta (Homo sapiens, UniProt Q13574)
[2] = molecular target: Diacylglycerol kinase alpha (Homo sapiens, UniProt P23743); assay: In Vitro DGK Inhibition Assays
Procedure: DGK α and ζ kinase use ATP to phosphorylate the substrate 1,2-dilauroyl-sn-glycerol (DLG, incorporated in the liposomes). ATP is converted to ADP as a result of this enzymatic reaction. After the kinase reaction, an ATP-depletion reagent is added to terminate the kinase reaction and deplete any remaining ATP, leaving only ADP. Second, a detection reagent is added to simultaneously convert ADP to ATP and allow the newly synthesized ATP to be converted to light using a coupled luciferase/luciferin reaction. A concentrated liposome solution was prepared in assay buffer without DTT and BSA: 2 mM of DLG in 21 mM of total liposome (2 mM DLG/8 mM PS/11 mM PC). […] The reactions were started by addition of DGK α and ζ kinases at 4 nM and 2 nM final concentrations, respectively. After 1 hour reaction, the amount of ADP formed was detected with the ADP-Glo kinase assay (Promega) according to the manufacturer instructions. Compounds were added in 11-points dose response, starting at […], 1:3 dilutions, with a final DMSO concentration of 2%. The multidrop combi was used as a liquid handler and luminescence was read with 0.5 s by the envision reader (PE).

Sequence of Diacylglycerol kinase alpha (P23743 whole entry): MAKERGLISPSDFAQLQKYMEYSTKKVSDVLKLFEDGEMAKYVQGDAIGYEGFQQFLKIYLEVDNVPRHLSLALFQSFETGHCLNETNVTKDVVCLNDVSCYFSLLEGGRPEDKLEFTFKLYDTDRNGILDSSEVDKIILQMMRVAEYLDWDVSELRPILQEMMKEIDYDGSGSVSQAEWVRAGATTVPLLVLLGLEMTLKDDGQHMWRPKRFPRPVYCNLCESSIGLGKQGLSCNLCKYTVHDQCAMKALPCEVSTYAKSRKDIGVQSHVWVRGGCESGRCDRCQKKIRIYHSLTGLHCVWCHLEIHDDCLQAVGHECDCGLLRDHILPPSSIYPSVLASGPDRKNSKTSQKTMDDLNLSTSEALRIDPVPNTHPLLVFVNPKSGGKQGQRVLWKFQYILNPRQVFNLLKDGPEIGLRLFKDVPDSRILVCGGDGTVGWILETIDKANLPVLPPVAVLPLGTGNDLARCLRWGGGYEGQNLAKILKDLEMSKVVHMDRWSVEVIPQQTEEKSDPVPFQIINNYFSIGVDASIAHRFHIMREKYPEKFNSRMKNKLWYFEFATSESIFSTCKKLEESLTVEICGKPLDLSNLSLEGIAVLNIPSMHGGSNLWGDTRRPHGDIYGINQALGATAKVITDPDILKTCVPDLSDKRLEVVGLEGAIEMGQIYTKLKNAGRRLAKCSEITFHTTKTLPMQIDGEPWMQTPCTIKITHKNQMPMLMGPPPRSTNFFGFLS
Sequence of Diacylglycerol kinase zeta (Q13574 as listed by the source): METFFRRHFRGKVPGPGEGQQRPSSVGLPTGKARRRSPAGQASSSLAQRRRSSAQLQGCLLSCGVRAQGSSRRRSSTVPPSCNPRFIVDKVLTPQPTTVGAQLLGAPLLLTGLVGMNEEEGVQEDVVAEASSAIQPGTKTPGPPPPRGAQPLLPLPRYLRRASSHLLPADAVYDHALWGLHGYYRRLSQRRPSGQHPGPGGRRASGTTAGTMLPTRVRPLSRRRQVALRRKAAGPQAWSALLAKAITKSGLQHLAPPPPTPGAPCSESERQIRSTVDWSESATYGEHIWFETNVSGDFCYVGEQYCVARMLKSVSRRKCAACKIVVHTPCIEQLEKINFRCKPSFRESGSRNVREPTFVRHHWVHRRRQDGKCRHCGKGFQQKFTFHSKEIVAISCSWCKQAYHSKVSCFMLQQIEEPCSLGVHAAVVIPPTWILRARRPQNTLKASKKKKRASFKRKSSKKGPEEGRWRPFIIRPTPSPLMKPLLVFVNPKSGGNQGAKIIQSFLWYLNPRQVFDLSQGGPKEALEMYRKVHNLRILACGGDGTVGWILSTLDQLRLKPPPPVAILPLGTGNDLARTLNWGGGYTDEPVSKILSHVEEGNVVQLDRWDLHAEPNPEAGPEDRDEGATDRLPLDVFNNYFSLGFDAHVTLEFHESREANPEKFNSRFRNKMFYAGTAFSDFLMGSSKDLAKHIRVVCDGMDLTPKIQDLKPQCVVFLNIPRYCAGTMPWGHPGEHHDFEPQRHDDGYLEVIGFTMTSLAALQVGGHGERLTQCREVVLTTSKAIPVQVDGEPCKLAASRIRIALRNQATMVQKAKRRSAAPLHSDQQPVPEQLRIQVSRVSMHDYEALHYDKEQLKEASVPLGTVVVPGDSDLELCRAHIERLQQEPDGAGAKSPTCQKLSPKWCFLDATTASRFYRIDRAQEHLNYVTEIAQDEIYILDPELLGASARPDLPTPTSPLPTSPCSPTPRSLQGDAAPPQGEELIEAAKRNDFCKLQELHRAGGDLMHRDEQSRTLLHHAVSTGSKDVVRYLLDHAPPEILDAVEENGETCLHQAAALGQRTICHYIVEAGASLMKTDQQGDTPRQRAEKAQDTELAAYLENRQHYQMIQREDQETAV

| pIC50 [1] | pIC50 [2] | SMILES |
| --- | --- | --- |
| 5.84 | 5.39 | COC1(c2nnc(-c3ccc4c(c3)N(Cc3ccc(Cl)cc3)C(=O)[C@@H](N)CS4(=O)=O)o2)CCC(F)(F)CC1 [US20240368150, Example 378] |
| 5.44 | 5.51 | CN(C)C(=O)c1nnc(-c2cc3c(cc2F)S(=O)(=O)C[C@H](N)C(=O)N3Cc2ccc(Cl)cc2)o1 [US20240368150, Example 87] |
